In the supplement of paper PMC10733146:

Tests used:
Test in all cases: viability relative to DMSO control (fraction); higher = less drug effect (more viable cells)
Conditions in all cases: 48 h
[1] = test system: primary T-NHL patient cells (S058)
Outline: (§1)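 Primary mononuclear tumour cells (Ficoll-isolated from blood or bone marrow, or processed lymph node; fresh or cryopreserved) were plated at 4 × 10^4 cells per well in 384-well plates with pre-plated compounds at five concentrations, one well each. Medium was RPMI-1640 with penicillin/streptomycin, L-glutamine and human serum, at 37 °C and 5% CO2 for 48 h. Viability was read as CellTiter-Glo luminescence relative to the median of 16 inner DMSO wells.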

[2] = test system: primary MCL patient cells (S068)
Outline: as §1

[3] = test system: primary AML patient cells (S006)
Outline: as §1

[4] = test system: primary AML patient cells (S007)
Outline: as §1

[5] = test system: primary AML patient cells (S056)
Outline: as §1

[6] = test system: primary AML patient cells (S081)
Outline: as §1

[7] = test system: primary AML patient cells (S085)
Outline: as §1

[8] = test system: primary AML patient cells (S037)
Outline: as §1

[9] = test system: primary AML patient cells (S011)
Outline: as §1

[10] = test system: primary CLL patient cells (S043)
Outline: as §1

[11] = test system: primary BL patient cells (S005)
Outline: as §1

[12] = test system: primary DLBCL patient cells (S076)
Outline: as §1

[13] = test system: primary AML patient cells (S012)
Outline: as §1

[14] = test system: primary DLBCL patient cells (S049)
Outline: as §1

[15] = test system: primary MCL patient cells (S063)
Outline: as §1

[16] = test system: primary CLL patient cells (S031)
Outline: as §1

[17] = test system: primary MCL patient cells (S041)
Outline: as §1

[18] = test system: primary T-PLL patient cells (S008)
Outline: as §1

Structure (SMILES): Cc1cc(Nc2ncc(Cl)c(Nc3ccccc3S(=O)(=O)C(C)C)n2)c(OC(C)C)cc1C1CCNCC1 [Ceritinib]
- viability ([1]; 0.024 µM): 1.03
- viability ([1]; 0.12 µM): 0.924
- viability ([1]; 0.6 µM): 0.961
- viability ([1]; 3 µM): 0.626
- viability ([1]; 15 µM): 0.023
- viability ([2]; 0.024 µM): 0.94
- viability ([2]; 0.12 µM): 0.84
- viability ([2]; 0.6 µM): 0.88
- viability ([2]; 3 µM): 1.02
- viability ([2]; 15 µM): 0.0227
- viability ([3]; 0.024 µM): 0.938
- viability ([3]; 0.12 µM): 0.924
- viability ([3]; 0.6 µM): 0.773
- viability ([3]; 3 µM): 0.53
- viability ([3]; 15 µM): 0.0233
- viability ([4]; 0.024 µM): 0.837
- viability ([4]; 0.12 µM): 0.718
- viability ([4]; 0.6 µM): 0.559
- viability ([4]; 3 µM): 0.173
- viability ([4]; 15 µM): 0.0192
- viability ([5]; 0.024 µM): 0.954
- viability ([5]; 0.12 µM): 1.41
- viability ([5]; 0.6 µM): 0.654
- viability ([5]; 3 µM): 0.375
- viability ([5]; 15 µM): 0.0154
- viability ([6]; 0.024 µM): 0.963
- viability ([6]; 0.12 µM): 0.957
- viability ([6]; 0.6 µM): 0.967
- viability ([6]; 3 µM): 0.982
- viability ([6]; 15 µM): 0.0181
- viability ([7]; 0.024 µM): 1.02
- viability ([7]; 0.12 µM): 0.875
- viability ([7]; 0.6 µM): 0.62
- viability ([7]; 3 µM): 0.49
- viability ([7]; 15 µM): 0.0171
- viability ([8]; 0.024 µM): 1.5
- viability ([8]; 0.12 µM): 0.922
- viability ([8]; 0.6 µM): 1.12
- viability ([8]; 3 µM): 0.742
- viability ([8]; 15 µM): 0.296
- viability ([9]; 0.024 µM): 0.846
- viability ([9]; 0.12 µM): 0.942
- viability ([9]; 0.6 µM): 0.631
- viability ([9]; 3 µM): 0.182
- viability ([9]; 15 µM): 0.0175
- viability ([10]; 0.024 µM): 1.05
- viability ([10]; 0.12 µM): 0.943
- viability ([10]; 0.6 µM): 0.928
- viability ([10]; 3 µM): 0.684
- viability ([10]; 15 µM): 0.0198
- viability ([11]; 0.024 µM): 1.05
- viability ([11]; 0.12 µM): 0.992
- viability ([11]; 0.6 µM): 0.944
- viability ([11]; 3 µM): 0.669
- viability ([11]; 15 µM): 0.0199
- viability ([12]; 0.024 µM): 1.02
- viability ([12]; 0.12 µM): 0.996
- viability ([12]; 0.6 µM): 0.964
- viability ([12]; 3 µM): 0.721
- viability ([12]; 15 µM): 0.0181
- viability ([13]; 0.024 µM): 1.05
- viability ([13]; 0.12 µM): 1.03
- viability ([13]; 0.6 µM): 1.06
- viability ([13]; 3 µM): 1.01
- viability ([13]; 15 µM): 0.0296
- viability ([14]; 0.024 µM): 0.897
- viability ([14]; 0.12 µM): 0.84
- viability ([14]; 0.6 µM): 0.771
- viability ([14]; 3 µM): 0.4
- viability ([14]; 15 µM): 0.0197
- viability ([15]; 0.024 µM): 0.967
- viability ([15]; 0.12 µM): 0.946
- viability ([15]; 0.6 µM): 0.957
- viability ([15]; 3 µM): 0.892
- viability ([15]; 15 µM): 0.0187
- viability ([16]; 0.024 µM): 1
- viability ([16]; 0.12 µM): 0.899
- viability ([16]; 0.6 µM): 0.838
- viability ([16]; 3 µM): 0.628
- viability ([16]; 15 µM): 0.018
- viability ([17]; 0.024 µM): 0.966
- viability ([17]; 0.12 µM): 0.966
- viability ([17]; 0.6 µM): 0.9
- viability ([17]; 3 µM): 0.654
- viability ([17]; 15 µM): 0.0173
- viability ([18]; 0.024 µM): 0.991
- viability ([18]; 0.12 µM): 1.04
- viability ([18]; 0.6 µM): 0.939
- viability ([18]; 3 µM): 0.86
- viability ([18]; 15 µM): 0.0194
